Data set [1] relates to adenylyl cyclase activity in the striatum (type 5 adenylyl cyclase). The experiment in a line: Membrane adenylyl cyclase assay, WT striatal membrane, forskolin-stimulated. To be noted: 10 μM; WT; striatum vs lung. It counts as biochemical, mouse. Here is the method:
FIG. 2 Inhibitory effects of various compounds on adenylyl cyclase activity in mouse striatum. The striatum is part of the brain. Here, it is known that type 5 adenylyl cyclase occupies almost all of the enzyme activity. […] Relative values are shown with adenylyl cyclase activity in the presence of 50 μM forskolin but in the absence of inhibitors being taken as 100 (n=4, means±S.E.).
(§1) <Membrane Adenylyl Cyclase Assay>
(§2) Striatal, cardiac and pulmonary tissues were removed from WT (C57BL) (Charles River Laboratories Japan, Inc.) and AC5KO (Circ. Res. 93: 364-371, 2003), both of which were 12-15 weeks of age after birth, and individual membrane protein fractions were prepared therefrom. The resultant membrane preparations were incubated with a reaction mixture (20 mM HEPES, pH 8, 5 mM MgCl2, 0.5 mM EDTA, pH 8, 0.1 mM ATP, 1 mM phospho creatine, 8 U/mL creatine phosphor kinase, 200 μM IBMX) at 30° C. in the presence of forskolin (an activator of adenylyl cyclase) (50 μM, Sigma Cat. No. F6886) and various compounds, to thereby allow production of cAMP. In this assay, striatum- or lung-derived membrane preparations were used in an amount of 1 μg, and heart-derived membrane preparation was used in an amount of 2 μg. 15 minutes (striatum and lung) or 30 minutes (heart) after its start, the reaction was terminated by adding trichloroacetate (TCA) solution to give a final concentration of 5%. Then, the protein was precipitated by centrifugation (13,500×g, 10 min).
(§3) In both membrane adenylyl cyclase assay and cAMP accumulation assay, the amount of cAMP contained in TCA solution was determined by radioimmunoassay using […].

In data set [2] the test system is adenylyl cyclase activity in the heart. The experiment in a line: Membrane adenylyl cyclase assay, WT heart membrane, forskolin-stimulated. The settings on record: 10 μM; wild-type mouse; heart vs lung. The format is biochemical, mouse.
Source text: (§4) FIG. 3 Inhibitory effects of individual vidarabine derivatives on adenylyl cyclase activity in the striatum, heart and lung. With adenylyl cyclase activity in the presence of […] but in the absence of inhibitors being taken as 100, the reductions in adenylyl cyclase activity upon treatment with various inhibitors at the concentrations indicated on the horizontal axis are shown (n=4, means±S.E.).
as §1, §2, §3

Data set [3] addresses T1, adenylyl cyclase activity in the heart.
T1 construct: IC50 on adenylyl cyclase activity in the heart; other: WT; estimated from 10, 50 and 100 μM
The data set is described as above. To be noted: WT; estimated from 10, 50 and 100 μM; 50 μM forskolin. The format is biochemical, mouse.
Source text: as §4, §1, §2, §3

For the next data set, the system named is H9c2 cells. The experiment in a line: cAMP accumulation assay in H9c2 cells, forskolin stimulation. It counts as cell-based, rat. The settings on record: 50 μM compound, 100 μM forskolin, n=1, preliminary. Here is the method: […] <H9c2 Cultured Cells> […] No. D6429) in the presence of 95% air+5% CO2 at 37° C. 80-90% confluent H9c2 cells were suspended in 10% FBS-containing DMEM. The cell suspension (500 μl) was added to each well of 24-well plates to give a density of 40,000 cells/well, and incubated overnight at 37° C. Subsequently, cells were incubated in serum-free DMEM (500 μl/well) for 48 hours and subjected to cAMP accumulation assay. <cAMP Accumulation Assay> H9c2 cells were incubated in the presence of 500 μM IBMX for 20 minutes at 37° C. Then, various vidarabine derivatives were added to the culture broth to give a concentration of 50 μM. Cells were further incubated for 10 minutes at 37° C. […] Cells were further incubated at 4° C. overnight. Similar experiments were also carried out on rat adult cultured cardiac myocytes under stimulation with various vidarabine derivatives (10 μM) and forskolin (5 μM). In both membrane adenylyl cyclase assay and cAMP accumulation assay, the amount of cAMP contained in TCA solution was determined by radioimmunoassay using […].

Data set [4] deals with cardiac myocytes in myocardial tissues. The experiment in a line: TUNEL staining of myocardial tissues of chronic catecholamine-loaded mice. It counts as in vivo, mouse. To be noted: mice of the chronic isoproterenol loading experiment. As to the method: FIG. 12 TUNEL stain of myocardial tissues. Apoptosis positive cardiac myocytes in the hearts of mice used in chronic catecholamine loading experiment (FIG. 9) were evaluated by TUNEL staining (n=4-6, means±SE).
<TUNEL Staining of Myocardial Tissues>
Apoptosis positive cells of the mice used in the chronic catecholamine loading experiment were evaluated by TUNEL staining.

Data set [5] has as its system strychnine-induced tonic extensive convulsion and death. The settings on record: for time to death induced by strychnine convulsion: 150 mg/kg (0.525 mmol/kg) and 300 mg/kg (1.05 mmol/kg) i.p. 15 min before strychnine 1.5 mg/kg; for migration to the central nervous system: evaluated indirectly from strychnine antagonism. Here is the method:
FIG. 13 Effects on the central nervous system. […] Strychnine nitrate dissolved in physiological saline was administered in the cervicodorsal hypoderm of mice (C57BL/6N; Nippon SLC; male; 10-12 week old) at a dose of 1.5 mg/kg. Subsequently, the time to death through tonic extensive convulsion was measured so that the effect on migration to the central nervous system was evaluated indirectly. Vidarabine, V2E, V3E and V5E were dissolved or suspended in physiological saline and administered intraperitoneally 15 minutes before strychnine administration (n=4-10, means±SE) (FIG. 13). Death was judged to have occurred when the thoracic respiratory movement ceased.
The migration of vidarabine, V2E, V3E and V5E to the central nervous system was evaluated by antagonism against the tonic extensive convulsion and death initiated in mice by strychnine administration. Strychnine nitrate dissolved in physiological saline was administered in the cervicodorsal hypoderm of mice (C57BL/6N; Nippon SLC; male; 10-12 week old) at a dose of 1.5 mg/kg. Subsequently, the time to death through tonic extensive convulsion was measured. Vidarabine, V2E, V3E and V5E were dissolved or suspended in physiological saline and administered intraperitoneally 15 minutes before strychnine administration.

A short description of data set [6]: Water solubility / hydrophilicity (stock solutions in pure water). It counts as physicochemical. The settings on record: in words. Here is the method: The thus synthesized position 2-substituted derivative (V2E), position 3-substituted derivative (V3E) and position 5-substituted derivative (V5E) were dissolved in pure water to give a concentration of 10 mM, to thereby prepare stock solutions. Vidarabine was dissolved in 100% dimethylsulfoxide to thereby prepare a 10 mM stock solution.
The newly synthesized three vidarabine derivatives (FIG. 1) were dissolved in pure water to thereby prepare 10 mM stock solutions. Since vidarabine infusion of about 2 mM is used in clinical scenes as an antiherpes therapeutic (Arasena-A for intravenous infusion; Mochida Pharmaceutical Co., Ltd.), it was possible to prepare solutions at concentrations about 5 times higher than that of the infusion. In the present study, vidarabine was dissolved in 100% DMSO to prepare a 10 mM stock solution.

The conditions of data set [7]: vidarabine, background statement; cited from earlier work.

Data on four molecules can be found in patent US9096632B2, “Modulator of activity of adenylate cyclase” (Public University Corporation Yokohama City University, priority 2010, dated 2015).

Regarding `CN(C)CC(=O)OC1C(O)C(CO)OC1n1cnc2c(N)ncnc21` (centres unmarked) [V2E, 2-O—(N,N-Dimethylglycyl)Vidarabine], the “inhibition of adenylyl cyclase activity in striatum relative to lung (tissue specificity)” value in data set [1] was “about 3.0 fold”. Further, the “inhibition of adenylyl cyclase activity in heart relative to lung (tissue specificity)” value in data set [2] is reported as “about 2.6 fold”. Further, the IC50 in data set [3] was 17.8 µM. Further, the “level of cAMP accumulated in response to forskolin (relative to control)” value (from here on “level … (relative to control)”) in the data set on H9c2 cells is listed as “about 57.1%”. The “apoptosis of cardiac myocytes induced by chronic catecholamine stimulation (TUNEL, myocardial tissue)” value in data set [4] is “equally inhibited”. Further, in data set [5], the “time to death induced by strychnine convulsion” value (“time to death induced” below) is “did not prolong” and the “migration to the central nervous system” value was “extremely low”. In addition, the hydrophilicity entry in data set [6] is listed as “highly hydrophilic”.
Consider `CN(C)CC(=O)OC1C(CO)OC(n2cnc3c(N)ncnc32)C1O` (centres unmarked) [V3E, 3-O—(N,N-Dimethylglycyl)Vidarabine], for which, in data set [3], the IC50 was 19.9 µM. Moreover, the “level … (relative to control)” value with H9c2 cells was “about 45.7%”. Further, in data set [5], the “time to death induced” value is recorded as “did not prolong” and the “migration to the central nervous system” value is “extremely low”.
Taken in the same sequence, the figures for `CN(C)CC(=O)OCC1OC(n2cnc3c(N)ncnc32)C(O)C1O` (centres unmarked) [V5E, 5-O—(N,N-Dimethylglycyl)Vidarabine] were 42.9 µM, “about 82.5%”, “did not prolong” and “extremely low”.
Take `Nc1ncnc2c1ncn2[C@@H]1O[C@H](CO)[C@@H](O)[C@@H]1O` [vidarabine, reference compound]: in data set [1], the “inhibition of adenylyl cyclase activity in striatum relative to lung (tissue specificity)” value is listed as “about 2.8 fold”. The “inhibition of adenylyl cyclase activity in heart relative to lung (tissue specificity)” value in data set [2] was “about 2.4 fold”. Besides, the IC50 in data set [3] was 7.7 µM. Moreover, the “level … (relative to control)” value in the data set on H9c2 cells is on record as “about 35.1%”. For the same molecule, the “apoptosis of cardiac myocytes induced by chronic catecholamine stimulation (TUNEL, myocardial tissue)” value in data set [4] is “equally inhibited”. In data set [5], the “time to death induced” value was “significantly prolonged”. In addition, in data set [7], the water solubility result is “poor”.

In general, IC50 refers to the midpoint of a concentration-inhibition curve.
